Measurements reported in patent US20230081321A1, “CARBONIC ANHYDRASE II COMPOSITIONS AND METHODS OF USE THEREOF” (University of Florida Research Foundation, Incorporated, priority 2020, published 2023).
“Also recorded” adds a separate entry of the source. One block for each molecule: values may come before it.

What was measured:
CAII [1] = target: T1, CAII (Homo sapiens, UniProt P00918); details: CAII binding; cited from earlier work
mouse hearts = test: Oxygen consumption by Langendorff-perfused mouse hearts; details: 1 mM inhibitor, ex vivo Langendorff perfusion, C57BL6 mouse hearts, O2 in minus O2 out vs control solution
Experimental: To test the effects of carbonic anhydrase inhibitors on oxygen consumption, Langendorff perfusion experiments were conducted using mouse hearts. Hearts were isolated from ˜12-week-old C57BL6 male mice and perfused ex vivo in Langendorff mode (retrograde perfusion via the aorta) with perfusate containing Krebs-Henseleit electrolytes with 2 mM acetate. The perfusate was constantly oxygenated with an oxygenator. […] The inhibitor solution was oxygenated by bubbling with 95% O2/5% CO2 mixed gas prior to adding.
Dissolved oxygen concentration was measured in the perfusate, or in the carbonic anhydrase inhibitor solution, using an Oxygraph+ system. […] In each figure, “O2 in” refers to the oxygen concentration in the perfusate prior to entering the heart or in the carbonic anhydrase inhibitor solution, and “O2 out” refers to the oxygen concentration in the perfusate after it passes through the heart.
Oxygen consumption was measured as the difference between the O2 in measurements and the O2 out measurements, and results are shown in FIG. 32.

[2] = cited from earlier work
CAII [3] = target: T1, CAII; test: CAII esterase inhibition assay with 4-nitrophenyl acetate (pNPA) as colorimetric substrate; details: at physiologically relevant concentrations

SMILES: [Cu] [copper]
- specificity toward copper over zinc (CAII [1]): 50 fold

SMILES: CC(=O)Nc1nnc(S(N)(=O)=O)s1 [acetazolamide]
- oxygen consumption by the heart (mouse hearts): increase in oxygen consumption; also recorded: increased oxygen consumption

SMILES: CC(=O)Oc1ccccc1C(=O)O [Aspirin, Acetylsalicylic acid]
- half-life in blood [2]: ~15 min

SMILES: CCN[C@H]1C[C@H](C)S(=O)(=O)c2sc(S(N)(=O)=O)cc21 [dorzolamide]
- oxygen consumption by the heart (mouse hearts): increase in oxygen consumption; also recorded: increased oxygen consumption

- inhibition of CAII (CAII [3]): completely inhibited CAII
SMILES: O=C(O)c1ccccc1O [SA, salicylic acid]
